# From patent US6096707A, “Integrin binding peptide and use thereof” (BioTie Therapies Ltd., priority 1997, dated 2000)
# Positions of bridges follow the written chain, without caps; N, C: chain ends. Residues, ends and D or L forms follow the SMILES beside them.
# Molecular target: T1, human recombinant integrin α2I domain (rα2I) (Homo sapiens, UniProt P17301)
# T1 construct: GST (glutathione S-transferase, pGEX2T) (N, cleaved yes); made in house; host or cells: E. coli BL21 (pJKα2I, pGEX2T backbone)
# T1 sequence (P17301 153-368): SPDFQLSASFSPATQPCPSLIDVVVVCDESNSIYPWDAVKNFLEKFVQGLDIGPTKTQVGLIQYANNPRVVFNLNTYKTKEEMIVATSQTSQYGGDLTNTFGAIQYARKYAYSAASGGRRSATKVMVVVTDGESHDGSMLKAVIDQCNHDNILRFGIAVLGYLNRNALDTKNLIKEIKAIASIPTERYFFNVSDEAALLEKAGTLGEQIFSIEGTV
# Format: binding
# Experimental: A 96-well immunoplate (Maxisorp, Nunc) was coated by exposing the surface of its well to 0.1 ml of PBS containing 5 μg/cm^2 of the plate surface, type I collagen (bovine dermal, Cellon), type IV collagen (Sigma), laminin-1 (purified from basement membranes of the Engelbreth-Holm-Swarm mouse tumor, Collaborative Research), fibronectin (human plasma fibronectin, Boehringer Mannheim) or 3.3 μg/ml echovirus-1 or echovirus-7 for 12 h at +4° C. Alternatively peptides and B. jararaca venom (Sigma) were coated at various concentrations on 96-well amine binding plates (Costar) according to the manufacturer's instructions.
# Residual protein absorption sites on all wells were blocked with 0.1% heat inactivated bovine serum albumin in PBS for 1 h at +37° C. Echoviruses 1 (Farouk strain) and 7 (Wallace) were obtained from the ATCC. The purified viruses were diluted in PBS containing 0.5 mM MgCl2 and stored at -70° C. until used. Europium labeled rα2I was added at a concentration of 500 ng/ml in PBS, 2 mM MgCl2, 1 mg/ml BSA to the coated wells and incubated for 3 h at +37° C. Wells were then washed three times with PBS, 2mM MgCl2. 0.1 ml Delfia enhancement solution (Wallac) was added to each well and europium signal was measured with fluorometry (Model 1232 Delfia, Wallac). […]
smiles,measurement,value
"C[C@@H]1NC(=O)[C@H](CC(N)=O)NC(=O)[C@H](CC(=O)O)NC(=O)[C@H](Cc2c[nH]cn2)NC(=O)[C@H](CCCCN)NC(=O)[C@H](CCCCN)NC(=O)[C@H](CCCNC(=N)N)NC(=O)[C@H]([C@@H](C)O)NC(=O)[C@@H](N)CSSC[C@@H](C(=O)O)NC(=O)[C@H](CCC(N)=O)NC1=O [229ox, CTRKKHDNAQC] (H-CTRKKHDNAQC-OH; disulfide 1-11)",inhibition of rα2I binding to B. jararaca venom by peptide,about 50%
